Assay: Biodistribution of I-123 Compound in rats (i.v. injection, excised organs gamma counted)
Assay type: in vivo, Sprague-Dawley male rats
Details: for Blood/Brain: concentration ratio calculated from % dose/gram of wet tissue; for Biodistribution, Brain / Biodistribution, Heart / Biodistribution, Kidneys / Biodistribution, Liver / Biodistribution, Lungs / Biodistribution, Skin / Biodistribution, Spleen / Biodistribution, Stomach / Biodistribution, Thyroids / Biodistribution, Blood / Biodistribution, Muscle: average of 3; for Biodistribution, Blood: blood taken as 7% of body weight; for Biodistribution, Muscle: muscle taken as 40% of body weight
Method: Studies of distribution of the optimum radiopharmaceutical compound of the present invention in rats, the results of which are reflected in Table 1, were conducted according to standard practice in the pharmacological sciences, and therefore need not be described here in great detail. Nevertheless, for the sake of complete understanding of the present invention, some experimental details of these studies are briefly described below: Sprague-Dawley male rats (220-300 g) were injected intravenously (femoral vein) with a 0.2 ml solution (0.5-20. micro Ci) under light ether anaesthesia. At different time periods after the injection, the animals were sacrificed and organs of interest were excised and counted in a well counter. Percent dose was estimated by comparison of tissue counts to suitably diluted aliquots of the injected material. Total activities in blood and muscle were calculated by assuming that they are 7% and 40% of the body weight respectively. Sprague-Dawley male rats (220-300 g) under light ether anesthesia were injected intravenously with 0.2 ml of a saline solution containing 0.5-20 uCi of test compound (specific activity 0.5-1.0 uCi/mg). At different time periods after injection the animals were put under ether anesthesia and killed by cardiactomy. The organs of interest were excised, weighed and counted in a Beckman automatic gamma counter (Model 4000). The % dose/organ was determined by comparison of tissue radioactivity levels to suitably diluted aliquots of the injected dose. The approximate % dose/g of wet tissue or organ can be calculated by dividing the % dose/organ by the mean organ weight (mean weights: heart 0.85 g, brain 1.65 g, blood 18 g, liver 9 g, kidneys 1.9 g, lungs 1.6 g).

[1] = 2 min after i.v. injection, rats
[2] = 1 hr after i.v. injection, rats

Q: With Cc1cc([123I])cc(CN(C)CCCN(C)C)c1O [I-123 Compound, N,N,N-trimethyl-N'[2-hydroxy-3-methyl-5-iodobenzyl]-1,3-propanediamines] as the compound, how does the Blood/Brain (2 min after i.v. injection) read?
A: 14.84

Q: And the “Biodistribution, Brain” value [1]?
A: 2.74 % dose/organ

Q: And the “Biodistribution, Heart” value [1]?
A: 2.71 % dose/organ

Q: And the “Biodistribution, Kidneys” value [1]?
A: 8.06 % dose/organ

Q: What about the “Biodistribution, Liver” value [1] of the same compound?
A: 5.52 % dose/organ

Q: And the “Biodistribution, Lungs” value [1]?
A: 36.53 % dose/organ

Q: What about the “Biodistribution, Skin” value [1] of the same compound?
A: 6.73 % dose/organ

Q: What about the “Biodistribution, Spleen” value [1] of the same compound?
A: 0.72 % dose/organ

Q: And the “Biodistribution, Stomach” value [1]?
A: 0.80 % dose/organ

Q: What about the “Biodistribution, Thyroids” value [1] of the same compound?
A: 0.59 % dose/organ

Q: And the “Biodistribution, Blood” value [1]?
A: 2.02 % dose/organ

Q: And the “Biodistribution, Muscle” value [1]?
A: 5.66 % dose/organ

Q: And the Blood/Brain (1 hr after i.v. injection)?
A: 32.18

Q: What about the “Biodistribution, Brain” value [2] of the same compound?
A: 2.50 % dose/organ

Q: What about the “Biodistribution, Heart” value [2] of the same compound?
A: 0.29 % dose/organ

Q: What about the “Biodistribution, Kidneys” value [2] of the same compound?
A: 2.87 % dose/organ

Q: And the “Biodistribution, Liver” value [2]?
A: 4.68 % dose/organ

Q: And the “Biodistribution, Lungs” value [2]?
A: 18.25 % dose/organ

Q: What about the “Biodistribution, Skin” value [2] of the same compound?
A: 9.21 % dose/organ

Q: And the “Biodistribution, Spleen” value [2]?
A: 1.58 % dose/organ

Q: And the “Biodistribution, Stomach” value [2]?
A: 0.93 % dose/organ

Q: What about the “Biodistribution, Thyroids” value [2] of the same compound?
A: 0.06 % dose/organ

Q: What about the “Biodistribution, Blood” value [2] of the same compound?
A: 0.85 % dose/organ

Q: And the “Biodistribution, Muscle” value [2]?
A: 12.77 % dose/organ

Q: What about the “initial uptake in the brain, lung and liver” value (rats, i.v., Table 1, in words) of the same compound?
A: high initial uptake

Q: And the “persistence of uptake in the brain, lung and liver” value (rats, i.v., Table 1, in words)?
A: persists sufficiently to allow imaging
